Data: the CheMixHub viscosity set
± gives the uncertainty stated by the source.

Test: xn = mol fraction of the nth substance listed

CCCCBr + CC(C)(C)O
viscosity [mPa·s], 101.33 kPa
Conditions	x2 = 0.0988	x2 = 0.197	x2 = 0.3014	x2 = 0.4101	x2 = 0.5017	x2 = 0.5982	x2 = 0.7029	x2 = 0.7982	x2 = 0.8931
298.15 K	0.597 ± 0.009	0.612 ± 0.009	0.643 ± 0.009	0.692 ± 0.009	0.798 ± 0.011	0.926 ± 0.012	1.148 ± 0.014	1.509 ± 0.019	2.232 ± 0.027
303.15 K	0.564 ± 0.008	0.576 ± 0.008	0.602 ± 0.008	0.642 ± 0.009	0.736 ± 0.01	0.839 ± 0.011	1.018 ± 0.013	1.302 ± 0.016	1.841 ± 0.022
308.15 K	0.534 ± 0.008	0.54 ± 0.008	0.563 ± 0.008	0.598 ± 0.008	0.679 ± 0.009	0.763 ± 0.01	0.909 ± 0.012	1.134 ± 0.014	1.543 ± 0.019
313.15 K	0.508 ± 0.007	0.511 ± 0.007	0.529 ± 0.008	0.557 ± 0.008	0.632 ± 0.009	0.7 ± 0.009	0.817 ± 0.011	0.995 ± 0.013	1.311 ± 0.016
318.15 K	0.494 ± 0.007	0.482 ± 0.007	0.497 ± 0.007	0.521 ± 0.007	0.581 ± 0.008	0.638 ± 0.009	0.737 ± 0.01	0.882 ± 0.011	1.127 ± 0.014

COCCO + CC(C)(C)O
Conditions	viscosity [mPa·s]
303.15 K, 101.3 kPa, x1 = 0.1011	2.892 ± 0.033
303.15 K, 101.3 kPa, x1 = 0.1977	2.538 ± 0.029
303.15 K, 101.3 kPa, x1 = 0.2694	2.324 ± 0.027
303.15 K, 101.3 kPa, x1 = 0.3774	2.043 ± 0.024
303.15 K, 101.3 kPa, x1 = 0.4851	1.831 ± 0.021
303.15 K, 101.3 kPa, x1 = 0.6774	1.579 ± 0.018
303.15 K, 101.3 kPa, x1 = 0.745	1.523 ± 0.018
303.15 K, 101.3 kPa, x1 = 0.849	1.456 ± 0.017
303.15 K, 101.3 kPa, x1 = 0.9028	1.427 ± 0.017
308.15 K, 101.33 kPa, x1 = 0.119	2.241 ± 0.019
308.15 K, 101.33 kPa, x1 = 0.2504	1.929 ± 0.016
308.15 K, 101.33 kPa, x1 = 0.3687	1.713 ± 0.014
308.15 K, 101.33 kPa, x1 = 0.5096	1.527 ± 0.013
308.15 K, 101.33 kPa, x1 = 0.6441	1.402 ± 0.012
308.15 K, 101.33 kPa, x1 = 0.7218	1.35 ± 0.011
308.15 K, 101.33 kPa, x1 = 0.8035	1.298 ± 0.011
308.15 K, 101.33 kPa, x1 = 0.9026	1.242 ± 0.01

CC(O)=S + CC(C)=O
298.1 K, 101 kPa
Conditions	viscosity [mPa·s]
x1 = 0.2	0.405 ± 0.032
x1 = 0.4	0.479 ± 0.036
x1 = 0.5	0.511 ± 0.037
x1 = 0.6	0.551 ± 0.039
x1 = 0.8	0.624 ± 0.043

CCCC(=O)O + CC(C)=O
viscosity [mPa·s], 101 kPa
Conditions	x1 = 0.0996	x1 = 0.1883	x1 = 0.3023	x1 = 0.3759	x1 = 0.5144	x1 = 0.5977	x1 = 0.7009	x1 = 0.7989	x1 = 0.9016	x1 = 0.9275
298.15 K	0.3862 ± 0.01	0.4576 ± 0.012	0.5666 ± 0.015	0.6477 ± 0.017	0.8181 ± 0.022	0.9307 ± 0.025	1.071 ± 0.028	1.216 ± 0.032	1.361 ± 0.036	1.408 ± 0.037
308.15 K	0.351 ± 0.0095	0.4131 ± 0.011	0.5047 ± 0.013	0.5741 ± 0.015	0.7153 ± 0.019	0.8095 ± 0.021	0.9246 ± 0.024	1.041 ± 0.028	1.158 ± 0.031	1.197 ± 0.032
318.15 K	0.3183 ± 0.0086	0.3666 ± 0.0099	0.4489 ± 0.012	0.5135 ± 0.014	0.6265 ± 0.017	0.7078 ± 0.019	0.7969 ± 0.021	0.8942 ± 0.024	0.9947 ± 0.026	1.018 ± 0.027

CCOC(=O)C(=O)OCC + CC(C)=O
303.15 K, 101 kPa
Conditions	viscosity [mPa·s]
x1 = 0.0571	0.381 ± 0.0042
x1 = 0.1199	0.487 ± 0.0051
x1 = 0.1893	0.599 ± 0.0061
x1 = 0.2664	0.715 ± 0.0072
x1 = 0.3527	0.844 ± 0.0084
x1 = 0.4497	0.979 ± 0.0096
x1 = 0.5602	1.123 ± 0.011
x1 = 0.6858	1.274 ± 0.012
x1 = 0.8308	1.453 ± 0.014
